“And” between values parts separate entries of the source, which are not always exact repeats. Equal entries are not always repeated.
How the values were obtained:
[1] = test system: PBMC; experiment: Time-dependent cytokine secretion by PBMC (Table 3); assay type: cell-based, human
Method: Detailed time dependent and multiple controls were used the secretion of several cytokines by PBMC (IL-2, IL-5, IL-8, GM-CSF, IL-4, IL-10, TNF-α, IFN-γβ, IL-1 and IL-6) were measured. […] By 4 hours, sPIF-1 blocked TNF alpha with recovery by 24 hours. Also INFgamma secretion initiated only after 48 hours. […] Effects on cytokines was already noted at 0.7 nM. Similar effects were found also with other mitogens LPS and PHA when PIF-1 was tested.

[2] = test system: donor lymphocytes and platelets; assay type: cell-based, human
Source text: The PIF assay, as disclosed in U.S. Pat. No. 5,646,003 to Barnea et al., entitled “Preimplantation Factor” issued Jul. 9, 1997, and in U.S. Pat. No. 5,981,198 to Barnea et al., entitled “Preimplantation Factor” granted Nov. 9, 1999, the disclosures of which are incorporated herein by reference in their entirety, may be used to measure the response of the immune system to pregnancy specific preimplantation factors. […] Lymphocyte-platelet rosettes result from the interaction of the T cell surface protein CD2 with its ligand CD58 expressed on the platelet membrane. Anti-CD2, by binding to the CD2 antigen on the T cells, inhibits their interaction with platelets.
Human PBMC were isolated by the Ficoll method. FITC-labeled nPIF-115 (SEQ ID NO: 1) and (FITC)-labeled scrPIF-1 (SEQ ID NO:5) and match-size irrelevant peptide (FITC)-labeled negative controls negPIF-1(15) (SEQ ID NO:11), were dissolved in PBS at concentrations ranging from 0.75 to 48.19 μM, and were incubated with 500,000 lymphocytes for 1 h at room temperature. The cells were washed 6 times with PBS and resuspended in 500 μl of the same buffer. T-cells and monocytes identification was performed in independent experiments by incubation with anti-CD3 and anti-CD14 antibody-phycoerithryn (PE) labeled. nPIF-115 (SEQ ID NO: 1) binding to PBMC was determined by flow cytometry. In addition, rosettes formed by T cell-platelets were detected by flow cytometry using anti-CD3 antibody-PE and anti-CD41a antibody-FITC (all antibodies were from Pharmingen Inc.).

[3] = 4 h post induction, substance alone
[4] = 4 h post induction, with MabCD3 coated wells
[5] = 24 h post induction, substance alone
[6] = 24 h post induction, with MabCD3 coated wells
[7] = 48 h post induction, substance alone
[8] = 48 h post induction, with MabCD3 coated wells
[9] = 96 h post induction, substance alone
[10] = 96 h post induction, with MabCD3 coated wells

For MVRIKPGSANKPSDD [sPIF-1(15)], the “concentration at which effects on cytokines was already noted” value [1] was 0.7 nM, the GM-CSF [1, 3] was 0 pg/mL and the IFN-y [1, 3] was 0 pg/mL. It also gave an IL-1β [1, 3] of 0 pg/mL, an IL-2 [1, 3] of 0 pg/mL and an IL-4 [1, 3] of 0 pg/mL. The IL-5 [1, 3] was 0 pg/mL, the IL-6 [1, 3] was 0 pg/mL and the IL-8 [1, 3] was 684.5 pg/mL. For the same sequence, the IL-10 [1, 3] was 0 pg/mL, the TNF-α [1, 3] was 0 pg/mL and the GM-CSF [1, 4] was 0 pg/mL. For the same sequence, the IFN-y [1, 4] was 0 pg/mL, the IL-1β [1, 4] was 0 pg/mL and the IL-2 [1, 4] was 0 pg/mL. The IL-4 [1, 4] was 0 pg/mL, the IL-5 [1, 4] was 0 pg/mL and the IL-6 [1, 4] was 17.5 pg/mL. For the same sequence, the IL-8 [1, 4] was 514.8 pg/mL, the IL-10 [1, 4] was 0 pg/mL and the TNF-α [1, 4] was 481.6 pg/mL. The GM-CSF [1, 5] was 0 pg/mL, the IFN-y [1, 5] was 0 pg/mL and the IL-1β [1, 5] was 0 pg/mL. The IL-2 [1, 5] was 0 pg/mL, the IL-4 [1, 5] was 0 pg/mL and the IL-5 [1, 5] was 0 pg/mL. For the same sequence, the IL-6 [1, 5] was 36.3 pg/mL, the IL-8 [1, 5] was >6330 pg/mL and the IL-10 [1, 5] was 0 pg/mL. It also gave a TNF-α [1, 5] of 38.0 pg/mL, a GM-CSF [1, 6] of 58.9 pg/mL and an IFN-y [1, 6] of 0 pg/mL. It also gave an IL-1β [1, 6] of 2914.1 pg/mL, an IL-2 [1, 6] of 9045.7 pg/mL and an IL-4 [1, 6] of 58.9 pg/mL. For the same sequence, the IL-5 [1, 6] was 397.5 pg/mL, the IL-6 [1, 6] was >5200 pg/mL and the IL-8 [1, 6] was >6330 pg/mL. The IL-10 [1, 6] was 1710.1 pg/mL, the TNF-α [1, 6] was >11390 pg/mL and the GM-CSF [1, 7] was 0 pg/mL. For the same sequence, the IFN-y [1, 7] was 0 pg/mL, the IL-1β [1, 7] was 0 pg/mL and the IL-2 [1, 7] was 0 pg/mL. The IL-4 [1, 7] was 0 pg/mL, the IL-5 [1, 7] was 0 pg/mL and the IL-6 [1, 7] was 0 pg/mL. For the same sequence, the IL-8 [1, 7] was >6330 pg/mL, the IL-10 [1, 7] was 0 pg/mL and the TNF-α [1, 7] was 0 pg/mL. For the same sequence, the GM-CSF [1, 8] was 0 pg/mL, the IFN-y [1, 8] was >4740 pg/mL and the IL-1β [1, 8] was 3295.4 pg/mL. It also gave an IL-2 [1, 8] of 6015.3 pg/mL, an IL-4 [1, 8] of 0 pg/mL and an IL-5 [1, 8] of 943.6 pg/mL. For the same sequence, the IL-6 [1, 8] was >5200 pg/mL, the IL-8 [1, 8] was >6330 pg/mL and the IL-10 [1, 8] was 664.9 pg/mL. The TNF-α [1, 8] was >11390 pg/mL, the GM-CSF [1, 9] was 0 pg/mL and the IFN-y [1, 9] was 0 pg/mL. It also gave an IL-1β [1, 9] of 0 pg/mL, an IL-2 [1, 9] of 0 pg/mL and an IL-4 [1, 9] of 0 pg/mL. The IL-5 [1, 9] was 0 pg/mL, the IL-6 [1, 9] was 0 pg/mL and the IL-8 [1, 9] was 6679.0 pg/mL. It also gave an IL-10 [1, 9] of 0 pg/mL, a TNF-α [1, 9] of 0 pg/mL and a GM-CSF [1, 10] of 0 pg/mL. It also gave an IFN-y [1, 10] of 0 pg/mL, an IL-1β [1, 10] of 0 pg/mL and an IL-2 [1, 10] of 0 pg/mL. For the same sequence, the IL-4 [1, 10] was 0 pg/mL, the IL-5 [1, 10] was 0 pg/mL and the IL-6 [1, 10] was 0 pg/mL. For the same sequence, the IL-8 [1, 10] was 0 pg/mL, the IL-10 [1, 10] was 0 pg/mL and the TNF-α [1, 10] was 0 pg/mL. For the same sequence, the “Th2 cytokine (IL10) secretion” value ([1]; CD3MAb as mitogen, after 24 hours) was “Major increase”, the TNF alpha secretion ([1]; CD3MAb as mitogen, by 4 hours, recovery by 24 hours) was “blocked” and the “Increase in Rosette Formation” value [2] was >370% and >288% and >208%. For the same sequence, the “increase in the number of rosettes in the presence of the anti-CD2 antibody” value [2] was “four-fold increase”.
